Test results published in ChEMBL document CHEMBL1154104, “S- and C-nucleosidoquinazoline as new nucleoside analogs with potential analgesic and anti-inflammatory activity” (Eur J Med Chem, 2009).

Tests used:
Rattus norvegicus [1] = experiment: Antiinflammatory activity against carrageenan-induced paw edema in Sprague-Dawley rat at 70 mg/kg, po pretreated 1 hr before carrageenan challenge measured after 4 hrs by plethysmometer; type: functional
Rattus norvegicus [2] = experiment: Gastrointestinal toxicity in Wistar rat assessed as ulcerogenic induces at 200 mg/kg, po after 17 hrs; type: organism-based; parameters: dose 200 mg/kg, route oral; conditions: in vivo
Mus musculus = experiment: Analgesic activity in Swiss albino mouse assessed as inhibition of acetic acid-induced writhing response at 70 mg/kg, po pretreated 1 hr before acetic acid challenge; type: functional

COc1ccc(C2NC(=S)NC3=C2C(=O)CC(C)(C)C3)cc1 (centres undefined)
inhibition in vivo at 70 mg/kg (Rattus norvegicus [1]): 71%

CC1(C)CC(=O)C2=C(C1)N=C(NN)NC2c1ccc(Cl)cc1 (centres undefined)
inhibition in vivo at 70 mg/kg (Rattus norvegicus [1]): 71%

CC1(C)CC(=O)C2=C(C1)N=C1NN=C([C@H](O)[C@@H](O)[C@@H](O)[C@H](O)CO)N1C2c1ccc(Cl)cc1 (some centres undefined)
UI (Rattus norvegicus [2]): 0.8 | inhibition in vivo at 70 mg/kg (Mus musculus): 59% | inhibition in vivo at 70 mg/kg (Rattus norvegicus [1]): 85%

CC1(C)CC(=O)C2=C(C1)N=C1NN=C([C@H](O)[C@@H](O)[C@H](O)CO)N1C2c1ccc(Cl)cc1 (some centres undefined)
UI (Rattus norvegicus [2]): 0.6 | inhibition in vivo at 70 mg/kg (Mus musculus): 71% | inhibition in vivo at 70 mg/kg (Rattus norvegicus [1]): 82%

CC1(C)CC(=O)C2=C(C1)N=C1NN=C([C@@H](O)[C@@H](O)[C@H](O)[C@H](O)CO)N1C2c1ccc(Cl)cc1 (some centres undefined)
UI (Rattus norvegicus [2]): 0.6 | inhibition in vivo at 70 mg/kg (Mus musculus): 57% | inhibition in vivo at 70 mg/kg (Rattus norvegicus [1]): 82%

CC1(C)CC(=O)C2=C(C1)NC(=S)NC2c1ccccc1 (centres undefined)
inhibition in vivo at 70 mg/kg (Rattus norvegicus [1]): 50%

CC1(C)CC(=O)C2=C(C1)N=C1NN=C([C@@H](O)[C@@H](O)[C@H](O)CO)N1C2c1ccc(Cl)cc1 (some centres undefined)
UI (Rattus norvegicus [2]): 0.5 | inhibition in vivo at 70 mg/kg (Mus musculus): 56.6% | inhibition in vivo at 70 mg/kg (Rattus norvegicus [1]): 82%

CC1(C)CC(=O)C2=C(C1)N=C1NN=C([C@@H](O)[C@H](O)[C@H](O)CO)N1C2c1ccc(Cl)cc1 (some centres undefined)
UI (Rattus norvegicus [2]): 0.5 | inhibition in vivo at 70 mg/kg (Mus musculus): 59.5% | inhibition in vivo at 70 mg/kg (Rattus norvegicus [1]): 84%

CC(=O)OC[C@H]1O[C@@H](SC2=NC3=C(C(=O)CC(C)(C)C3)C(c3ccc(Cl)cc3)N2)[C@H](OC(C)=O)[C@@H]1OC(C)=O (some centres undefined)
inhibition in vivo at 70 mg/kg (Rattus norvegicus [1]): 76%

CC1(C)CC(=O)C2=C(C1)N=C1NN=C(c3ccc(Cl)cc3)N1C2c1ccc(Cl)cc1 (centres undefined)
inhibition in vivo at 70 mg/kg (Rattus norvegicus [1]): 68%

CC1(C)CC(=O)C2=C(C1)N=C1NN=C([C@H](O)[C@@H](O)[C@H](O)[C@H](O)CO)N1C2c1ccc(Cl)cc1 (some centres undefined)
UI (Rattus norvegicus [2]): 0.5 | inhibition in vivo at 70 mg/kg (Mus musculus): 73% | inhibition in vivo at 70 mg/kg (Rattus norvegicus [1]): 86%

CC(=O)OC[C@H]1O[C@@H](SC2=NC3=C(C(=O)CC(C)(C)C3)C(c3ccc(Cl)cc3)N2)[C@H](OC(C)=O)[C@@H](OC(C)=O)[C@H]1OC(C)=O (some centres undefined)
inhibition in vivo at 70 mg/kg (Rattus norvegicus [1]): 76%

CC1(C)CC(=O)C2=C(C1)NC(=S)NC2c1ccc(Cl)cc1 (centres undefined)
inhibition in vivo at 70 mg/kg (Rattus norvegicus [1]): 69%

CC(=O)OC[C@H]1O[C@@H](SC2=NC3=C(C(=O)CC(C)(C)C3)C(c3ccc(Cl)cc3)N2)[C@H](OC(C)=O)[C@@H](OC(C)=O)[C@@H]1OC(C)=O (some centres undefined)
inhibition in vivo at 70 mg/kg (Rattus norvegicus [1]): 75%

CC(C)Cc1ccc(C(C)C(=O)O)cc1 (centres undefined) [IBUPROFEN]
UI (Rattus norvegicus [2]): 1.8 | inhibition in vivo at 70 mg/kg (Mus musculus): 83.5% | inhibition in vivo at 70 mg/kg (Rattus norvegicus [1]): 92%
